The results in this text go back to EP0595557A1, “New substituted azetidinones as anti-inflammatory and antidegenerative agents” (MERCK & CO. INC., priority 1992, dated 1994).

In the first assay the target is T1, Human Polymorphonuclear Leukocyte Elastase (Homo sapiens, UniProt P08246).
T1 construct: Crude extract of human polymorphonuclear leukocytes (PMN) containing elastase activity; from tissue; host or cells: human polymorphonuclear leukocytes (crude extract)
T1 sequence (P08246 30-267): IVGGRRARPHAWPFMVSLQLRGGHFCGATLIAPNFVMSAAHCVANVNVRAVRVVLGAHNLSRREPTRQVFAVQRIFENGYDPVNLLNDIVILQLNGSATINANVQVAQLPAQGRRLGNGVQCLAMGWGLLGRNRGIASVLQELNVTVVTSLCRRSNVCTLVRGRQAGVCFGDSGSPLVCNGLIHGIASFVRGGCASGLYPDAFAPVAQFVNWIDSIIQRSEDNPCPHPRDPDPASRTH
Put plainly: Enzyme assay for inhibition of human polymorphonuclear leukocyte elastase via hydrolysis of Boc-AAPAN or Boc-AAPVN. Type of assay: biochemical. The note with it: pH 7.5, second order rate constant for inactivation of the enzyme, expressed to the nearest thousand, read-out: Kobs/[I]. A digest of the protocol: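 Crude human PMN extract as enzyme source, with 0.2 mM Boc-AAPAN in 0.05M TES buffer pH 7.5. Inhibitors in DMSO were added to substrate before the extract, and rate was followed as ΔOD/min at 410 mµ. Values are kobs/I, the second-order inactivation rate constant (per mole per second).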
As for `CCC[C@@H](NC(=O)N1C(=O)C(CC)(CC)[C@@H]1Oc1ccc(C(=O)NCCN(C(C)C)C(C)C)cc1)c1ccc(C)cc1` [Compound 84], the kinact/KI was found to be 2.1e+06 M⁻¹ s⁻¹.
Consider `CCC[C@@H](NC(=O)N1C(=O)C(CC)(CC)[C@@H]1Oc1ccc(C(=O)N(C)CC[N+](C)(C)[O-])cc1)c1ccc(C)cc1` [Compound 85], for which the kinact/KI amounted to 1.59e+06 M⁻¹ s⁻¹.
Consider `CCC[C@@H](NC(=O)N1C(=O)C(CC)(CC)[C@@H]1Oc1ccc(C(=O)N(C)CCN(C(C)C)C(C)C)cc1)c1ccc(C)cc1` [Compound 86], for which the kinact/KI came to 2.45e+06 M⁻¹ s⁻¹.
In the case of `CCC[C@@H](NC(=O)N1C(=O)C(CC)(CC)[C@@H]1Oc1ccc(C(=O)NS(=O)(=O)CCN2CCOCC2)cc1)c1ccc(C)cc1` [Compound 87], the kinact/KI was determined as 775000 M⁻¹ s⁻¹.
As for `CCC[C@@H](NC(=O)N1C(=O)C(CC)(CC)[C@@H]1Oc1ccc(C(=O)NS(=O)(=O)CCN(C)C)cc1)c1ccc(C)cc1` [Compound 88], the kinact/KI turned out to be 788000 M⁻¹ s⁻¹.
Turning to `CCC[C@@H](NC(=O)N1C(=O)C(CC)(CC)[C@@H]1Oc1ccc(C(=O)NCCc2cnc[nH]2)cc1)c1ccc(C)cc1` [Compound 89], the kinact/KI amounted to 2.09e+06 M⁻¹ s⁻¹.
Still for that read-out and setting: next, `CCC[C@@H](NC(=O)N1C(=O)C(CC)(CC)[C@@H]1Oc1ccc(C(=O)NCCN2CCCCC2)cc1)c1ccc(C)cc1` [Compound 90]: 941000 M⁻¹ s⁻¹.
As to `CCC[C@@H](NC(=O)N1C(=O)C(CC)(CC)[C@@H]1Oc1ccc(C(=O)N(C)CCN2CCCCC2)cc1)c1ccc(C)cc1` [Compound 91], the kinact/KI came to 892000 M⁻¹ s⁻¹.
For `CCC[C@@H](NC(=O)N1C(=O)C(CC)(CC)[C@@H]1Oc1ccc(C(=O)N(C)CCNC)cc1)c1ccc(C)cc1` [Compound 92], the kinact/KI turned out to be 1.45e+06 M⁻¹ s⁻¹.
For the compound `CCC[C@@H](NC(=O)N1C(=O)C(CC)(CC)[C@@H]1Oc1ccc(C(=O)NCCN2CCCC2)cc1)c1ccc(C)cc1` [Compound 94], the kinact/KI was found to be 1.24e+06 M⁻¹ s⁻¹.
On to `CCC[C@@H](NC(=O)N1C(=O)C(CC)(CC)[C@@H]1Oc1ccc(C(=O)N(C)CCN2CCCC2)cc1)c1ccc(C)cc1` [Compound 95], for which the kinact/KI is 1e+06 M⁻¹ s⁻¹.
`CCC[C@@H](NC(=O)N1C(=O)C(CC)(CC)[C@@H]1Oc1ccc(C(=O)NCCn2cncn2)cc1)c1ccc(C)cc1` [Compound 96]: the kinact/KI worked out at 1.4e+06 M⁻¹ s⁻¹.
Regarding `CCC[C@@H](NC(=O)N1C(=O)C(CC)(CC)[C@@H]1Oc1ccc(C(=O)NCCn2ccnc2)cc1)c1ccc(C)cc1` [Compound 97], the kinact/KI is 1.07e+06 M⁻¹ s⁻¹.
Still for that read-out and setting: the same measure for `CCC[C@@H](NC(=O)N1C(=O)C(CC)(CC)[C@@H]1Oc1ccc(C(=O)NCCN2CC3CCC(CC3)C2)cc1)c1ccc(C)cc1` [Compound 98]: 3.04e+06 M⁻¹ s⁻¹; for `CCC[C@@H](NC(=O)N1C(=O)C(CC)(CC)[C@@H]1Oc1ccc(C(=O)NCCN2CCC3(CCCCC3)CC2)cc1)c1ccc(C)cc1` [Compound 99]: 2.58e+06 M⁻¹ s⁻¹.
On to `CCC[C@@H](NC(=O)N1C(=O)C(CC)(CC)[C@@H]1Oc1ccc(C(=O)NCCn2ncnn2)cc1)c1ccc(C)cc1` [Compound 100], for which the kinact/KI was found to be 2.01e+06 M⁻¹ s⁻¹.
Still for that read-out and setting: the same measure for `CCC[C@@H](NC(=O)N1C(=O)C(CC)(CC)[C@@H]1Oc1ccc(C(=O)NCCn2cnnn2)cc1)c1ccc(C)cc1` [Compound 101]: 2.05e+06 M⁻¹ s⁻¹.
On to `CCCC(NC(=O)N1C(=O)C(CC)(CC)C1Oc1ccc(C(=O)NCC(=O)N2CCCC2C(=O)NCc2ccccc2)cc1)c1ccc(C)cc1` (stereo not shown) [Compound 102], for which the kinact/KI worked out at 2.75e+06 M⁻¹ s⁻¹.
Take `CCC[C@@H](NC(=O)N1C(=O)C(CC)(CC)[C@@H]1Oc1ccc(C(=O)N(C)CCN2CC3CCC(CC3)C2)cc1)c1ccc(C)cc1` [Compound 103]: the kinact/KI worked out at 3e+06 M⁻¹ s⁻¹.
For the compound `CCC[C@@H](NC(=O)N1C(=O)C(CC)(CC)[C@@H]1Oc1ccc(C(=O)N(C)CCc2c[nH]cn2)cc1)c1ccc(C)cc1` [Compound 104], the kinact/KI was 2.39e+06 M⁻¹ s⁻¹.
Same read-out and setting: next, `CCC[C@@H](NC(=O)N1C(=O)C(CC)(CC)[C@@H]1Oc1ccc(C(=O)N(C)CCN(C)C(C)=O)cc1)c1ccc(C)cc1` [Compound 105]: 2.4e+06 M⁻¹ s⁻¹; `CCC[C@@H](NC(=O)N1C(=O)C(CC)(CC)[C@@H]1Oc1ccc(C(=O)N(C)CCN(C)C(=O)NC)cc1)c1ccc(C)cc1` [Compound 106]: 2.49e+06 M⁻¹ s⁻¹.
For `CCC[C@@H](NC(=O)N1C(=O)C(CC)(CC)[C@@H]1Oc1ccc(C(=O)N(C)CCN(C)S(C)(=O)=O)cc1)c1ccc(C)cc1` [Compound 107], the kinact/KI is 2.53e+06 M⁻¹ s⁻¹.
With `CCC[C@@H](NC(=O)N1C(=O)C(CC)(CC)[C@@H]1Oc1ccc(C(=O)NCCN2CCS(=O)(=O)CC2)cc1)c1ccc(C)cc1` [Compound 109], the kinact/KI was found to be 1.28e+06 M⁻¹ s⁻¹.
Same read-out and setting: next, `CCC[C@@H](NC(=O)N1C(=O)C(CC)(CC)[C@@H]1Oc1ccc(C(=O)NCc2ccc(N(C)C)cc2)cc1)c1ccc(C)cc1` [Compound 110]: 5.6e+06 M⁻¹ s⁻¹; `CCC[C@@H](NC(=O)N1C(=O)C(CC)(CC)[C@@H]1Oc1ccc(C(=O)Nc2cccc(N(C)C)c2)cc1)c1ccc(C)cc1` [Compound 111]: 2.29e+06 M⁻¹ s⁻¹.
With `CCC[C@@H](NC(=O)N1C(=O)C(CC)(CC)[C@@H]1Oc1ccc(C(=O)N(C)CCN2CCS(=O)(=O)CC2)cc1)c1ccc(C)cc1` [Compound 112], the kinact/KI came to 1.6e+06 M⁻¹ s⁻¹.
Take `CCC[C@@H](NC(=O)N1C(=O)C(CC)(CC)[C@@H]1Oc1ccc(C(=O)Nc2ccc(N(C)C)cc2)cc1)c1ccc(C)cc1` [Compound 113]: the kinact/KI was 2.59e+06 M⁻¹ s⁻¹.
As to `CCC[C@@H](NC(=O)N1C(=O)C(CC)(CC)[C@@H]1Oc1ccc(C(=O)NCCc2nccn2Cc2ccccc2)cc1)c1ccc(C)cc1` [Compound 114], the kinact/KI was 3.85e+06 M⁻¹ s⁻¹.
As for `CCC[C@@H](NC(=O)N1C(=O)C(CC)(CC)[C@@H]1Oc1ccc(C(=O)N(C)CCc2ccccn2)cc1)c1ccc(C)cc1` [Compound 115], the kinact/KI worked out at 2.27e+06 M⁻¹ s⁻¹.
With `CCC[C@@H](NC(=O)N1C(=O)C(CC)(CC)[C@@H]1Oc1ccc(C(=O)N(C)C2CN3CCC2CC3)cc1)c1ccc(C)cc1` (stereo partly shown) [Compound 116], the kinact/KI turned out to be 3.48e+06 M⁻¹ s⁻¹.
For `CCC[C@@H](NC(=O)N1C(=O)C(CC)(CC)[C@@H]1Oc1ccc(C(=O)NCCN2CCN(C(=O)OCc3ccccc3)CC2)cc1)c1ccc(C)cc1` [Compound 117], the kinact/KI stood at 6.23e+06 M⁻¹ s⁻¹.
The same measure, in the same setting: the same measure for `CCC[C@@H](NC(=O)N1C(=O)C(CC)(CC)[C@@H]1Oc1ccc(C(=O)NC2CN(CC)N(CC)C2)cc1)c1ccc(C)cc1` [Compound 118]: 1e+06 M⁻¹ s⁻¹; for `CCC[C@@H](NC(=O)N1C(=O)C(CC)(CC)[C@@H]1Oc1ccc(C(=O)N2CCC[C@H]2CN2CCCC2)cc1)c1ccc(C)cc1` [Compound 119]: 2.69e+06 M⁻¹ s⁻¹; for `CCC[C@@H](NC(=O)N1C(=O)C(CC)(CC)[C@@H]1Oc1ccc(C(=O)NCCN2CCC(O)CC2)cc1)c1ccc(C)cc1` [Compound 120, [S-(R+,S*)]-3,3-diethyl-2-[4-[[[2-(4-hydroxy-1-piperidinyl)ethyl]amino]carbonyl]phenoxy]-N-[1-(4-methyl-phenyl)butyl]-4-oxo-1-azetidine-carboxamide]: 1.73e+06 M⁻¹ s⁻¹.
Still for that read-out and setting: the same measure for `CCC[C@@H](NC(=O)N1C(=O)C(CC)(CC)[C@@H]1Oc1ccc(C(=O)NCCN2CCCCCC2)cc1)c1ccc(C)cc1` [Compound 121]: 2.07e+06 M⁻¹ s⁻¹; for `CCC[C@@H](NC(=O)N1C(=O)C(CC)(CC)[C@@H]1Oc1ccc(C(=O)N(C)CCN2CCCCCC2)cc1)c1ccc(C)cc1` [Compound 122]: 2.9e+06 M⁻¹ s⁻¹.
Consider `CCC[C@@H](NC(=O)N1C(=O)C(CC)(CC)[C@@H]1Oc1ccc(C(=O)NCCN2CCCC(O)C2)cc1)c1ccc(C)cc1` (stereo partly shown) [Compound 123], for which the kinact/KI was 1.53e+06 M⁻¹ s⁻¹.
Consider `CCC[C@@H](NC(=O)N1C(=O)C(CC)(CC)[C@@H]1Oc1ccc(C(=O)N(C)CCN2CCCC(O)C2)cc1)c1ccc(C)cc1` (stereo partly shown) [Compound 124], for which the kinact/KI is 1.96e+06 M⁻¹ s⁻¹.
In the case of `CCC[C@@H](NC(=O)N1C(=O)C(CC)(CC)[C@@H]1Oc1ccc(C(=O)N(C)CCN(C)Cc2ccccc2)cc1)c1ccc(C)cc1` [Compound 125], the kinact/KI turned out to be 2.05e+06 M⁻¹ s⁻¹.
`CCC[C@@H](NC(=O)N1C(=O)C(CC)(CC)[C@@H]1Oc1ccc(C(=O)N(C)CCN2CCC(OCc3ccccc3)CC2)cc1)c1ccc(C)cc1` [Compound 126]: the kinact/KI was 3.48e+06 M⁻¹ s⁻¹.
On to `CCC[C@@H](NC(=O)N1C(=O)C(CC)(CC)[C@@H]1Oc1ccc(C(=O)N(CCC)CCC)cc1)c1ccc(C)cc1` [Compound 127], for which the kinact/KI worked out at 990000 M⁻¹ s⁻¹.
The same measure, in the same setting: next, `CCC[C@@H](NC(=O)N1C(=O)C(CC)(CC)[C@@H]1Oc1ccc(C(=O)N(CC)CC)cc1)c1ccc(C)cc1` [Compound 128]: 1.45e+06 M⁻¹ s⁻¹; `CCC[C@@H](NC(=O)N1C(=O)C(CC)(CC)[C@@H]1Oc1ccc(C(=O)N(C)CCN2CCC(O)CC2)cc1)c1ccc(C)cc1` [Compound 129]: 1.99e+06 M⁻¹ s⁻¹.
`CCC[C@@H](NC(=O)N1C(=O)C(CC)(CC)[C@@H]1Oc1ccc(C(=O)N(C)CCN2CCC(=O)CC2)cc1)c1ccc(C)cc1` [Compound 130]: the kinact/KI was 2.3e+06 M⁻¹ s⁻¹.
On the same count and under the same terms, the same measure for `CCC[C@@H](NC(=O)N1C(=O)C(CC)(CC)[C@@H]1Oc1ccc(C(=O)NCCN2CCC(O)C2)cc1)c1ccc(C)cc1` (stereo partly shown) [Compound 131]: 1.11e+06 M⁻¹ s⁻¹.
For `CCC[C@@H](NC(=O)N1C(=O)C(CC)(CC)[C@@H]1Oc1ccc(C(=O)N(CC)CCN2CCCCC2)cc1)c1ccc(C)cc1` [Compound 132], the kinact/KI turned out to be 1.24e+06 M⁻¹ s⁻¹.
With `CCC[C@@H](NC(=O)N1C(=O)C(CC)(CC)[C@@H]1Oc1ccc(C(=O)N(CCN2CCCCC2)Cc2ccccc2)cc1)c1ccc(C)cc1` [Compound 133], the kinact/KI worked out at 1.52e+06 M⁻¹ s⁻¹.

Staying with this assay, now noted: second order rate constant for inactivation of the enzyme, expressed to the nearest thousand; pH 7.5.
`CCC[C@@H](NC(=O)N1C(=O)C(CC)(CC)[C@@H]1Oc1ccc(C(=O)N(C)CCN2CC3CCC(CC3)C2)cc1)c1ccc(C)cc1` [Compound 108]: the “Kobs/[I]” value was 2,953,000 per mole per second.
